# Assay results as given in patent US20250288632A1, “Viral Entry Inhibitors Derived From Botanicals” (priority 2022, published 2025).
# Legend:
# [1] = tested on: wild type SARS-CoV-2 pseudovirion; test: microbe, parasite or virus in culture; type: cell-based; conditions: Severe acute respiratory syndrome coronavirus 2, read-out: EC50 % Inhibition (μg/mL)
# [2] = tested on: SARS-CoV2 (Vero); test: microbe, parasite or virus in culture; type: cell-based, SARS-CoV-2; conditions: Severe acute respiratory syndrome coronavirus 2, Vero, 48 h
# [3] = tested on: SARS-CoV2 (Calu3); test: microbe, parasite or virus in culture; type: cell-based, SARS-CoV-2; conditions: Severe acute respiratory syndrome coronavirus 2, Calu-3, 72 h
# [4] = Cytotoxicity assay measuring cell proliferation in PBM cells; type: cell-based; conditions: remdesivir
# Experimental: Numbers in parentheses indicate percent inhibition at the highest concentration tested. Cytotoxicity assays measuring the cell proliferation in PBM and Vero cells were performed in parallel to the antiviral assays.
# [5] = tested on: SARS-CoV2 (Caco2); test: microbe, parasite or virus in culture; conditions: Severe acute respiratory syndrome coronavirus 2, Caco-2, 72 h
structure (smiles),measurement,setting,value
CCN(CCO)CCCC(C)Nc1ccnc2cc(Cl)ccc12 (centres unmarked) [Hydroxy cholorquine],EC50,[1],1.14 µg/mL
CCC(CC)COC(=O)[C@H](C)N[P@](=O)(OC[C@H]1O[C@@](C#N)(c2ccc3c(N)ncnn23)[C@H](O)[C@@H]1O)Oc1ccccc1 [Remdesivir],EC50,[2]; read-out: Anti-SARS-CoV2 (Vero) EC50,600 nM
same,EC90,[2]; read-out: Anti-SARS-CoV2 (Vero) EC90,1600 nM
same,EC50,[3]; read-out: Anti-SARS-CoV2 (Calu3) EC50,2 nM
same,EC90,[3]; read-out: Anti-SARS-CoV2 (Calu3) EC90,20 nM
same,CC50,[4],1200 nM
same,EC50,[5]; read-out: Anti-SARS-CoV2 (Caco2) EC50,100 nM
same,EC90,[5]; read-out: Anti-SARS-CoV2 (Caco2) EC90,400 nM
